Earlier results in US10328067B2, “Pharmaceutical oral dose formulation and composition of matter” (priority 2016, dated 2019).

Conditions: result in words; p-glycoprotein substrate

intestinal absorption: negligible intestinal absorption
Structure (SMILES): CC[C@]1(O)C[C@@H]2CN(CCc3c([nH]c4ccccc34)[C@@](C(=O)OC)(c3cc4c(cc3OC)N(C)[C@H]3[C@@](O)(C(=O)OC)[C@H](OC(C)=O)[C@]5(CC)C=CCN6CC[C@]43[C@@H]65)C2)C1 [vinblastine]
